Laboratory results from PubChem BioAssay AID179 (DTP/NCI, 2004).
The source made the active and inactive calls.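 How the source made its calls: active means compounds giving half or more protection of infected cells from virus-caused growth loss, again on retest; inactive means the rest.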 Where a SMILES comes first, the peptide text is derived from it. [ ]: non-standard residue; d: D form. The star is where a group is joined. ξ: configuration not given here. Trt = c1ccc(C(c2ccccc2)(c2ccccc2)*)cc1; Benzhydryl = c1ccc(C(c2ccccc2)*)cc1; Cbz = O=C(OCc1ccccc1)*; ξD = NC(CC(=O)O)C(=O)O; Boc = CC(C)(C)OC(=O)*; Aib = CC(C)(N)C(=O)O; OtBu = CC(C)(C)O*

System: CEM cells HIV-1 protection, formazan growth assay
Test: NCI AIDS Antiviral Assay
Conditions: for IC50: measured here: growth of uninfected CEM cells
In short: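 Five concentrations of each compound were applied to infected and uninfected human CEM cells. Protection from HIV-1 was judged from growth measured with a soluble formazan assay.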

Compound	EC50 [µM]	IC50 [µM]	outcome
CC(C)(C)c1noc2c1C(=O)c1ccccc1-2	> 200	83.2	
O=C1OC(c2ccccc2)=N/C1=C\c1ccccc1O	> 26.9	> 26.9	
Oc1cc(Cl)c(Cl)cc1Cl			inactive
O=P(NC12CC3CC(CC(C3)C1)C2)(N1CC1)N1CC1			inactive
CC(=O)N(C)c1ccc(N=CN(C)C)cc1	> 200	> 200	
COC1OC(Cn2c(C)nc(Br)c2Br)C(O)C(O)C1O (configuration not stated)	33.9	> 200	
Cc1c(C(=O)O)cc2n(c1=O)Cc1cc3ccccc3nc1-2	> 10	> 10	
CN(C)CC1CCCC(CN(C)C)C1=NO (configuration not stated)			inactive
NC(=O)C(=CNC(=S)Nc1cccc(C(F)(F)F)c1)C(N)=O	> 200	> 200	
CC1=C2CCC(O)CC2(C)C(O)C1C (configuration not stated)			inactive
Cc1c([N+](=O)[O-])c(=O)oc2cc3occc(=O)c3cc12	> 36.3	18.2	
CN(C)CCC(=O)C(=Cc1ccc(O)cc1)C(=O)CCN(C)C	> 646	43.7	
O=C(c1ccco1)C1CC(c2ccc3ccccc3c2O)=NN1c1ccc([N+](=O)[O-])cc1[N+](=O)[O-] (configuration not stated)	> 200	15.8	
N=C1N(/N=C/c2ccccn2)C(=Nc2ccccc2)C(=S)N1c1ccccc1	> 200	5.13	
Cc1ccc(S(=O)(=O)C(C#N)c2nc3ccccc3nc2-n2cccn2)cc1 (configuration not stated)	> 200	126	
CC(C)(CO)NCC(O)CS(=O)(=O)O (configuration not stated)	> 200	> 200	
O=[N+]([O-])c1ccc(C=NC23CC4CC(CC(C4)C2)C3)cc1			inactive
C=CC1C(OC2OC(CO)C(O)C(O)C2O)OC=C(C(=O)OC)C1CC=O (configuration not stated)	> 646	> 646	
COC(=O)c1ccccc1C#CCCCOS(C)(=O)=O	> 200	> 200	
CCOC(=O)C1(C#N)C(C#N)(C#N)C12CCCCC2 (configuration not stated) (tested in a mixture with another compound)	> 200	6.03	
Cn1c(=O)[nH]c2nncnc2c1=O	> 200	31.6	
Cc1c(N=Nc2cc(N=Nc3ccc(N=Nc4ccc(O)c(C(=O)O)c4)cc3)c(N)cc2N)cccc1S(=O)(=O)O	25.7	> 100	

Compound	EC50 [µM]	IC50 [µM]	outcome
Cc1ccc(N2CC(O)CSC2=Nc2ccccc2)cc1 (configuration not stated)	> 112	46.8	
Clc1ccc(-c2c(C3=NCCN3)nnn2-c2ccccc2)cc1	> 214	174	
C=C1c2cc3c(cc2CC12Cc1cc4c(cc1C2=O)CCC4)CCC3 (configuration not stated)	> 200	> 200	
CCCCCCCCCCCC(=O)OC[C@H](C[As](=O)(O)O)OC(=O)CCCCCCCCCCC	> 200	4.17	
O=C(NCCCCCCNC(=O)NC1OCC(O)C(O)C1O)NC1OCC(O)C(O)C1O (configuration not stated)			inactive
Cc1cccc2c1Oc1cc(Cl)ccc1C2NC(=O)CN(C)C (configuration not stated)	> 77.6	72.4	
CC(Cc1ccccc1)Nc1ncnc2c1ncn2C1OC(CO)CC1O (configuration not stated)			inactive
Cc1nc(Nc2ccccc2)sc1C(=O)CC(=O)C(=O)Nc1c(C(C)C)cccc1C(C)C	> 77.6	> 77.6	
O=S1(=O)CCc2ccccc2C(Br)C1 (configuration not stated)	> 200	> 200	
CC(C)(C)OC(=O)NCCNC(=O)OCc1ccccc1	> 200	> 200	
O=Cc1[nH]c(=O)[nH]c(=O)c1C(=O)O	> 200	> 200	
COC(=O)C(C)(C)NC(=O)C(C)(C)NC(=O)C(CC(=O)OC(C)(C)C)NC(=O)OC(C)(C)C (configuration not stated) (Boc-[ξD](OtBu)-[Aib]-[Aib]-OMe)	> 200	> 200	
CN(N)c1ncnc2c1cnn2C	> 209	> 209	
CC(=O)Nc1ccc(NCC(=O)Nn2cnc3ccc(S(=O)(=O)Nc4ccc(NC(C)=O)cc4)cc3c2=O)cc1	> 200	191	
Cc1ccc(C)c(COCCOCn2ccc(N)nc2=O)c1	> 200	> 200	
CCN(CC)CCOCC1CCCN2CCCCC12 (configuration not stated)	> 200	> 200	
CCn1c(SCC(=O)NNC(=S)NC)nc2ccccc2c1=O	> 200	> 200	
O=C(C#CP(=O)(O)c1ccccc1)c1ccccc1	> 200	> 200	
ClC1C(Cl)C2CC1C1CC3OC3C21 (configuration not stated)	> 200	> 200	
COc1ccc(C2(OC)Oc3ccccc3C(=O)C2(O)O)cc1 (configuration not stated)	> 200	12.6	
CC(C)N1CC2CC(CN(C(=O)c3ccccc3)C2)C1	> 676	> 676	
CCCCCCCCCCN=Cc1c(O)c(O)c(CCC)c2cc(C)c(-c3c(C)cc4c(CCC)c(O)c(O)c(C=NCCCCCCCCCC)c4c3O)c(O)c12			inactive

Compound	EC50 [µM]	IC50 [µM]	outcome
CC1=C2C3=C(C)C(=O)C(C)(C)CC[C@@]3(C)[C@]2(C)CCC(C)(C)C1=O	> 75.9	> 75.9	
CCOC(=O)N1N=C(c2ccccc2)OC2(N3CCCC3)CCC(C(C)(C)C)CC12 (configuration not stated)	44.7	105	
CC(=O)c1ccc2c(c1)CC1(C2)Cc2ccccc2C1=O (configuration not stated)	> 200	74.1	
CCOC(=O)C1=c2[nH]c3cccc4cccc(c43)n2C(=O)CC1	> 200	12.3	
CCOC(=O)/C(ON)=C(/CC/C(C(=O)OC)=C(\ON)C(=O)OCC)C(=O)OC	155	617	
COCCCNC1=C(C#N)C(=O)NC2(CCCC2)S1	> 525	> 525	
Cn1c(=O)c2c(ncn2CCNC(CO)C(O)c2ccc([N+](=O)[O-])cc2)n(C)c1=O (configuration not stated)	> 200	> 200	
O=[N+]([O-])c1cccnc1S(=O)(=O)c1ccccc1	> 490	1.1	
N#Cc1sc2c(c1OC(=O)c1ccc(Cl)cc1)c(=O)n(-c1ccccc1)c(=S)n2-c1ccccc1	> 200	1.2	
C[n+]1c(-c2ccc(NC(=O)c3ccc(C(=O)Nc4ccc(-c5cn6ccccc6[n+]5C)cc4)cc3)cc2)cn2ccccc21	> 2.63	1.66	
CCOC(OCC)c1ccc(N(C)C)cc1.[C-]#[O+].[C-]#[O+].[C-]#[O+].[Cr]	> 20	3.39	
O=[N+]([O-])c1ccc(C2N3CCCCC3[C@H]3CCCCN23)cc1 (some centres not stated)	> 24	> 24	
CC(C)(C)OC(=O)CNC(=O)C(Cc1ccccc1)NC(=O)C(CSC(c1ccccc1)(c1ccccc1)c1ccccc1)NC(=O)CNC(=O)C(Cc1ccccc1)NC(=O)CNC(=O)C(CSC(c1ccccc1)c1ccccc1)NC(=O)C(CSC(c1ccccc1)(c1ccccc1)c1ccccc1)NC(=O)OCc1ccccc1 (configuration not stated) (Cbz-C(Trt)C(Benzhydryl)GFGC(Trt)FG-OtBu; configuration not given here)	> 8.32	> 8.32	
O=c1cc(-c2ccccc2)oc2cc(OCC(O)COc3ccc4c(=O)cc(-c5ccccc5)oc4c3)ccc12	> 25.7	> 25.7	
COc1ccc(/C=C/C(=O)c2sc(Nc3ccc([N+](=O)[O-])cc3)nc2C)cc1	> 47.9	39.8	
CC(C)N(C(=O)C12CC3CC(CC(C3)C1)C2)C(C)C	> 135	41.7	
S=C(SSSC(=S)N(C1CCCCC1)C1CCCCC1)N(C1CCCCC1)C1CCCCC1			inactive
CC(C)(C)c1cc(C(=O)Nc2cc(Br)c(Br)cc2S(N)(=O)=O)cc(C(C)(C)C)c1O	> 200	8.13	
CC(NC(=O)C(Cc1ccc(OC(=O)c2ccccc2)cc1)NC(=O)OC(C)(C)C)C(=O)NCC(=O)NC(Cc1ccccc1)C(=O)NN (configuration not stated)	> 200	11.7	
CCOC(=O)C1(C(=O)OCC)C[C@@H](C)[C@@H](O)C1	> 200	> 200	
CCN(CC)CCCNC(=O)Cc1ccccc1Nc1c(Cl)cccc1Cl	> 200	16.6	
Nc1ccc(S(=O)(=O)Nc2cnc3ccccc3n2)cc1	> 316	> 316	

Compound	EC50 [µM]	IC50 [µM]	outcome
O=C(CCl)Nc1cccc2ccccc12	> 200	3.24	
O=c1[nH]nc(-c2ccccc2)n1-c1cccc([N+](=O)[O-])c1	> 200	> 200	
CCCCC1CC(c2ccc(Cl)cc2)=NO1 (configuration not stated)	> 21.9	> 21.9	
O=C1NC(=Nc2ccccc2)C(=Nc2ccccc2)N1c1ccccc1	> 200	14.8	
CN(C)COC(=S)[S-].CN(C)COC(=S)[S-].CN(C)COC(=S)[S-].[Fe+6]	> 2	0.363	
CCOC(=O)/C=C(/OCC)[C@@H]1C(C(=O)c2ccc(Cl)cc2)[C@H]1/C(=C\C(=O)OCC)OCC (some centres not stated)	> 200	17.4	
CN(C)CCN(C)CC1COC(C)(C)O1 (configuration not stated)			inactive
COC(=O)[C@H]1[C@@H](C(C)C)O[C@@H](C(C)C)O[C@H]1C(F)(F)F	> 200	> 200	
COC(=O)[C@H](Cc1ccccc1)NP(=O)(OC)OCC1OC(n2cc(C)c(=O)[nH]c2=O)CC1N=[N+]=[N-] (some centres not stated)	83.2	> 200	
O=C(/C=C/c1ccccc1)c1cccs1	> 200	3.72	
CO/N=C/c1cc(NC(=S)c2ccoc2C)ccc1Cl	0.0575	29.5	
OC(OCC(COC(O)C(Br)Br)(COC(O)C(Br)Br)COC(O)C(Br)Br)C(Br)Br (configuration not stated)	> 100	> 100	
COc1ccc(C2(CC(C)O)SCCCS2)cc1 (configuration not stated)	> 200	115	
Cc1nc(N)c(N=O)c(=O)[nH]1	> 200	> 200	
CC(=O)OCN(C)c1nc(N(C)COC(C)=O)nc(N(C)COC(C)=O)n1	> 50.1	> 50.1	
CC(C)N1CCCOC(c2ccc([N+](=O)[O-])cc2)O1 (configuration not stated)	> 200	112	
Cc1cc(Cl)ccc1N=C1NC(=O)C(CC(=O)Nc2ccc(Cl)cc2Cl)S1 (configuration not stated)	> 407	224	
O=c1[nH]c2ccccc2c2oc(-c3ccccc3)nc12	> 100	> 100	
CC1(CO)C(O)CCC2(C)C1C(O)CC1CC3CC12CCC3(O)CO (configuration not stated)	> 708	138	
Cc1cc(=O)oc2cc3c(cc12)Oc1ccccc1O3	> 25.7	> 25.7	
